According to publication PMC12075751 (Nature Communications, 2025):

What was measured:
human BMSCs = assay: Osteoblastic differentiation of BMSCs, Alizarin Red staining; type: cell-based; conditions: FABP4 25 or 50 ng/mL, with BMS 5 or 10 μM, 21-day induction
TRAP, c-Fos, NFATc1 = assay: Western Blotting of OCs differentiation marker proteins; type: cell-based, mouse; conditions: OCs + BMS
CTX-1 = assay: ELISA of serum CTX-1, OVX mice, oral gavage study; type: in vivo, mouse
OVX mice [1] = type: in vivo, mouse
OVX mice [2] = type: in vivo, mouse; conditions: BMS 10 mg/kg oral
OVX mice [3] = type: in vivo, mouse; conditions: BMS 10 mg/kg oral; remark: listed apart in the source
OVX mice [4] = assay: Three-point bending test on femoral midshaft, OVX mice, oral gavage study; type: in vivo, mouse; conditions: oral administration of BMS
PK analysis in SD rats = type: in vivo, rat
FABP4 [5] = assay: ELISA of serum FABP4, OVX mice, oral gavage study; type: in vivo, mouse; conditions: 28 days daily oral gavage, ALD […], BMS 10 mg/kg
PINP = assay: ELISA of serum PINP, OVX mice, oral gavage study; type: in vivo, mouse; conditions: vs Model
OVX mice [6] = assay: H&E staining of bone marrow adipose tissue, OVX mice, oral gavage study; type: in vivo, mouse; conditions: BMS vs ALD
FABP4 [7] = assay: IHC of FABP4 in tibial bone marrow, OVX mice, oral gavage study; type: in vivo, mouse; conditions: BMS vs ALD
BMMs = assay: OCs formation from BMMs; type: cell-based, mouse; conditions: 25 ng/mL FABP4 during RANKL induction of BMMs
OCs [8] = assay: Bone resorption activity of mature OCs on bovine bone slices; type: cell-based, mouse; conditions: SEM
OCs [9] = assay: F-actin staining of OCs; type: cell-based, mouse; conditions: vs group with only RANKL and M-CSF
[10] = tested on: intracellular Ca2+ in OCs; assay: Ca2+ concentration detection in OCs; type: cell-based, mouse; conditions: OCs + FABP4 (25 ng/mL)
[11] = OVX mice, BMS 10 mg/kg oral, 28 days

With CCc1c(-c2ccccc2)c(-c2ccccc2)nn1-c1ccccc1-c1cccc(OCC(=O)O)c1 [BMS309403] the “osteogenic differentiation capacity of BMSCs (Alizarin Red staining)” value (human BMSCs) was “neither the FABP4 protein nor its inhibitor affected”, the “TRAP, c-Fos, and NFATc1 protein levels” value (TRAP, c-Fos, NFATc1) was “suppression” and the “bone resorption (serum CTX-1)” value (CTX-1) was “reduced”. For the same molecule, the “efficacy in femur compared to ALD” value (OVX mice [1]; BMS 10 mg/kg, 7.7 times the ALD dose ([…]), oral) was “did not achieve the same efficacy”, the “femoral BMD” value (OVX mice [1]; [11]) was “increased” and the “trabecular thickness (Tb.Th), distal femur” value (OVX mice [1]; [11]) was “increased”. The “trabecular number (Tb.N), distal femur” value (OVX mice [1]; OVX mice, BMS 10 mg/kg oral, 28 days, listed as BMS) was “increased”, the “BMD, L5 lumbar vertebra” value (OVX mice [2]) was “significantly improving” and the “Tb.N, L5 lumbar vertebra” value (OVX mice [2]) was “significantly improving”. The “Tb.Th, L5 lumbar vertebra” value (OVX mice [2]) was “significantly improving”, the “bone volume/total volume (BV/TV), L5 lumbar vertebra” value (OVX mice [2]) was “significantly improving” and the “trabecular separation (Tb.Sp), L5 lumbar vertebra” value (OVX mice [2]) was “significantly improving”. For the same molecule, the “bone resorption in vivo (TRAP staining of tibia sections)” value (OVX mice [3]) was “inhibitory effect”, the “bone stiffness, femoral midshaft” value (OVX mice [4]) was “improved” and the “elastic modulus, femoral midshaft” value (OVX mice [4]) was “improved”. For the same molecule, the Cl (PK analysis in SD rats; IV 2.0 mg/kg, G1-Mean (n = 3)) was 11.523 mL/min/kg, the “MRT(0-∞)” value (PK analysis in SD rats; IV 2.0 mg/kg, G1-Mean (n = 3)) was 0.84 h and the Vz (PK analysis in SD rats; IV 2.0 mg/kg, G1-Mean (n = 3)) was 1.73416 L/kg. The Cmax (PK analysis in SD rats; IV 2.0 mg/kg, G1-Mean (n = 3), listed as BMS, 2 mg/kg) was 7094.95 ng/mL, the “AUC(0-t)” value (PK analysis in SD rats; PO 10.0 mg/kg, G2-Mean (n = 3)) was 5527.36 ng·h/mL and the T1/2 (PK analysis in SD rats; PO 10.0 mg/kg, G2-Mean (n = 3), listed as BMS, 10 mg/kg) was 3.16 h.

For NCCCC(O)(P(=O)(O)O)P(=O)(O)O [ALD, alendronate sodium], the “serum FABP4 levels vs Model group” value (FABP4 [5]) was “significantly reduced”, the “bone formation (serum PINP)” value (PINP) was “little effect” and the “bone resorption (serum CTX-1)” value (CTX-1) was “reduced”. For the same molecule, the “bone marrow fat tissue (H&E staining)” value (OVX mice [6]) was “no significant difference” and the “FABP4 protein expression in bone marrow (IHC)” value (FABP4 [7]) was “no significant difference”.

B1: FABP4: recombinant FABP4 protein (MCE, cat#HY-P70293) (protein, UniProt P04117 2-132, looked up)
Fatty acid-binding protein, …: CDAFVGTWKLVSSENFDDYMKEVGVGFATRKVAGMAKPNMIISVNGDLVTIRSESTFKNTEISFKLGVEFDEITADDRKVKSIITLDGGALVQVQKWDGKSTTIKRKRDGDKLVVECVMKGVTSTRVYERA
For B1, the “osteogenic differentiation capacity of BMSCs (Alizarin Red staining)” value (human BMSCs) was “neither the FABP4 protein nor its inhibitor affected”, the “formation of OCs (TRAP staining)” value (BMMs) was “significantly promoted the formation of OCs” and the “bone resorption by mature OCs on bovine bone slices” value (OCs [8]) was “enhanced bone resorption”. The “F-actin / bone skeleton structure of OCs” value (OCs [9]) was “more regular and distinct bone skeleton structure with abundant F-actin” and the “intracellular calcium levels in OCs” value [10] was “significant increase”.
